Experimental data as given in patent publication US5866545A, “Substituted ketone derivatives as inhibitors of interleukin-1β converting enzyme” (Merck & Co., Inc., priority 1996, dated 1999).
pKi: −log10 of the molar value. Read-outs that look alike come from different tables or passages of the source.

Target: T1, interleukin-1β converting enzyme (ICE) (Homo sapiens, UniProt P29466)
T1 sequence (P29466 120-297 limits assumed): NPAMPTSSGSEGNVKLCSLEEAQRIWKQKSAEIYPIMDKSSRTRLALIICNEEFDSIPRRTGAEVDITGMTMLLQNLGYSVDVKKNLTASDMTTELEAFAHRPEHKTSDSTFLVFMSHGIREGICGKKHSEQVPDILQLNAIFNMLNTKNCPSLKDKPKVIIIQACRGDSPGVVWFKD
T1 sequence (P29466 317-404 limits assumed): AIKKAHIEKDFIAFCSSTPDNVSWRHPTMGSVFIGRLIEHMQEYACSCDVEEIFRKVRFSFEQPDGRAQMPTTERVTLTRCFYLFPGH
Assay: Fluorometric assay of inhibition of ICE hydrolysis of peptide substrate Ac-Tyr-Val-Ala-Asp-AMC
Type: biochemical
Details: for pKi: reversible inhibition; for kon: irreversible inhibition
Description: Inhibition of Interleukin-1β Converting Enzyme (ICE).
A fluorometric assay used to evaluate the inhibition of interleukin-1βconverting enzyme (ICE) hydrolysis of a peptide substrate (Ac-Tyr-Val-Ala-Asp-AMC) by the compounds described in Examples 1-15 has been described in detail (N. A. Thornberry et al., Nature 1992, 356, 768-774). Briefly, liberation of AMC (aminomethylcoumarin) from the substrate was monitored continuously in a spectrofluorometer using an excitation wavelength of 380 nm and an emission wavelength of 460 nm. Details for determining kinetic constants for reversible and irreversible inhibition are described (N. A. Thomberry et al., Biochemistry 1994, 33, 3934-3940).
Inhibition of Interleukin-1β Converting Enzyme (ICE) by Examples 1-14

| pKi | kon (read-out: kon) [M⁻¹ s⁻¹] | kon | Compound |
| --- | --- | --- | --- |
| 5.02 | – | – | C=CCOC(=O)NC(CC(=O)O)C(=O)COc1cccc2ccccc12 (centres unmarked) [Example 2, N-Allyloxycarbonyl-3-amino-5-(1-naphthyloxy)-4-oxopentanoic acid] |
| 5.30 | – | – | C=CCOC(=O)NC(CC(=O)O)C(=O)COc1ccc2ccccc2c1 (centres unmarked) [Example 3, N-Allyloxycarbonyl-3-amino-5-(2-naphthyloxy)-4-oxopentanoic acid] |
| 6.30 | – | – | C=CCOC(=O)NC(CC(=O)O)C(=O)COc1cc2ccccc2cc1C(=O)Nc1ccccc1 (centres unmarked) [Example 5, N-Allyloxycarbonyl-3-amino-5-(3-(N-phenyl)aminocarbonyl-2-naphthyloxy)-4-oxopentanoic acid] |
| 6.21 | 4500 | – | C=CCOC(=O)NC(CC(=O)O)C(=O)COc1cc2ccccc2cc1C#N (centres unmarked) [Example 6, N-Allyloxycarbonyl-3-amino-5-(3-cyano-2-naphthyloxy)-4-oxopentanoic acid] |
| 8.52 | – | – | CC(=O)N[C@@H](Cc1ccc(O)cc1)C(=O)N[C@H](C(=O)N[C@@H](C)C(=O)NC(CC(=O)O)C(=O)COc1ccccc1)C(C)C (some centres unmarked) [Example 11, N-(N-Acetyl-(L)-tyrosinyl-(L)-valinyl-(L)-alaninyl)-3-amino-5-phenoxy-4-oxopentanoic acid] |
| – | – | 430,000 M^-1 s^-1 | CC(C)[C@H](NC(=O)OCc1ccccc1)C(=O)N[C@@H](C)C(=O)NC(CC(=O)O)C(=O)COc1cc2ccccc2cc1C(N)=O.CCN(CC)CC (some centres unmarked) [Example 12, N-(N-Carbobenzyloxy-(L)-valinyl-(L)-alaninyl)-3-amino-5-(3-amino-carbonyl-naphthyl-2-oxy)-4-oxo-pentanoic acid, triethylamine salt] |

The next lines start with the compound.

| Compound | pKi | kon (read-out: kon) [M⁻¹ s⁻¹] | kon |
| --- | --- | --- | --- |
| C=CCOC(=O)NC(CC(=O)O)C(=O)COc1ccccc1 (centres unmarked) [Example 1, N-Allyloxycarbonyl-3-amino-4-oxo-5-phenoxy-pentanoic acid] | 5.46 | – | – |
| C=CCOC(=O)NC(CC(=O)O)C(=O)COc1cc2ccccc2cc1C(N)=O (centres unmarked) [Example 4, N-Allyloxycarbonyl-3-amino-5-(3-aminocarbonyl-2-naphthyloxy)-4-oxopentanoic acid] | 6.52 | – | – |
| C=CCOC(=O)NC(CC(=O)O)C(=O)COc1cc2ccccc2cc1CO (centres unmarked) [Example 7, N-Allyloxycarbonyl-3-amino-5-(3-hydroxymethyl-2-naphthyloxy)-4-oxopentanoic acid] | 5.92 | – | – |
| C=CCOC(=O)NC(CC(=O)O)C(=O)COc1cc2ccccc2cc1C(=O)OC (centres unmarked) [Example 8, N-Allyloxycarbonyl-3-amino-5-(3-methoxycarbonyl-2-naphthyloxy)-4-oxopentanoic acid] | 5.59 | – | – |
| C=CCOC(=O)NC(CC(=O)O)C(=O)COc1cc2ccccc2cc1C(=O)NCCO (centres unmarked) [Example 9, N-Allyloxycarbonyl-3-amino-5-(3-(2-hydroxyethyl-1-aminocarbonyl)-2-naphthyloxy)-4-oxopentanoic acid] | 6.28 | – | 1000 M⁻¹ s⁻¹ |
| C=CCOC(=O)NC(CC(=O)O)C(=O)COc1cc2ccccc2cc1-n1ccnc1 (centres unmarked) [Example 10, N-Allyloxycarbonyl-3-amino-5-(3-imidazolyl-2-naphthyloxy)-4-oxopentanoicacid] | 7.05 | – | 12,000 M^-1 s^-1 |
| CC(C)[C@H](NC(=O)OCc1ccccc1)C(=O)N1CCC[C@H]1C(=O)NC(CC(=O)O)C(=O)COc1cc2ccccc2cc1C(N)=O (some centres unmarked) [Example 13, N-(N-Carbobenzyloxy-(L)-valinyl-(L)-prolinyl)-3-amino-5-(3-amino-carbonyl-naphthyl-2-oxy)-4-oxo-petanoic acid] | – | – | 340,000 M^-1 s^-1 |
| NC(=O)c1cc2ccccc2cc1OCC(=O)C(CC(=O)O)NC(=O)c1cc2ccccc2[nH]1 (centres unmarked) [Example 14, N-(2-indoloyl)-3-amino-5-(3-aminocarbonyl-naphthyl-2-oxy)-4-oxo-pentanoic acid] | – | – | 390 M⁻¹ s⁻¹ |
